Test results reported in patent US10143666B2, “Small molecule inhibitors targeting CAG-repeat RNA toxicity in polyglutamine diseases” (The Chinese University of Hong Kong, priority 2015, dated 2018).
Several values for one entry are separate records, joined by “and”; a condition that tells them apart may be missing. Equal values may be shown once. Read-outs that look alike come from different tables or passages of the source.

How the values were obtained:
[1] = mouse, in vivo, iv, 50 mg/kg
Protocol: (§1) Body temperature was measured from rectum on day 1 (baseline), and on days 3, 5 and 7.
(§2) Body temperature was measured from rectum on day 1 (baseline) and on days 3, 5 and 7.

R6/2 Huntington's mice = assay: Neurological index scoring in R6/2 mice; type: in vivo
Protocol: The body weights were measured daily.
The following 30 behaviors were evaluated: Head Tremor, Head Twitch, Head Bobbing, Head Searching, Body Tremor, Body Twitch, Tail Tremor, Tail Twitch, Straub Tail, Piloerection, Shallow Respiration, Flattened Body Posture, Swollen Face, Ptosis, Irritability, Seizure, Urine Staining, Lacrimation, Salivation, Limb Splay, Catalepsy, Abnormal Gait, Tip Toe Walking, Slow Careful Movements, Excessive Grooming, Circling, Sniffing, and Chewing. In addition to the above occurrences the chronic observational phase included excessive locomotor activity, loss of startle response, loss of righting reflex, dehydration and tail pinch. The assessment was performed as follows: A score of 0 was assigned for normal features (such as locomotor activity) or for the absence of abnormal features (such as absence of piloerection); a score of 1 was given when mild abnormalities were observed; and a score of 2-3 was given when severe abnormalities were observed. All of these features were scored from simple observation of the mice in their cage, except for the startle, tail pinch and righting reflexes which were direct manipulations. To test the startle reflex, a small hand clicker was used to generate a loud popping noise and the following behaviors were identified during this process: jumping, freezing, and rapid eye blinks. For the righting reflex, each mouse was then removed from its home cage and placed on its back allowing the mouse to correct itself. Tail pinch was tested by gently squeezing the end of the tail with forceps.

[2] = Body temperature (rectum) in R6/2 mice; conditions: for Body temperature vs vehicle: day 7, p<0.05
Protocol: as §1, §2

CN(C)CCCNC(=N)c1ccc(C(=N)NCCCN(C)C)cc1.Cl.Cl.Cl.Cl [DB213]
Body temperature (group Mean) [1]: 37.5
Mean neurological index score of all parameters vs vehicle (R6/2 Huntington's mice; i.n. 300 mg/kg, day 3, p<0.05): significantly higher mean score
Neurological index score, differences between treatment groups (R6/2 Huntington's mice; i.v. dosing): no differences in neurological index score
Neurological index score (R6/2 Huntington's mice; intranasal dosing): increased neurological index score
Body temperature vs vehicle ([2]; i.n. 100 mg/kg): increased
Body temperature vs vehicle ([2]; i.n. 300 mg/kg): increased
Body temperature (group Mean) ([2]; i.n. daily 50 mg/kg, Day 1 (baseline)): 36.9
Body temperature (individual mouse) ([2]; i.n. daily 50 mg/kg, Day 1 (baseline), listed as Compound-5, 50 mg/kg): 37 and 35.9 and 36.4
Body temperature (group Mean) ([2]; i.n. daily 50 mg/kg, Day 3): 36.9
Body temperature (individual mouse) ([2]; i.n. daily 50 mg/kg, Day 3, listed as Compound-5, 50 mg/kg): 36.9 and 35.8 and 37
Body temperature (individual mouse) ([2]; i.n. daily 50 mg/kg, Day 5, listed as Compound-5, 50 mg/kg): 37.9
Body temperature (individual mouse) ([2]; i.n. daily 50 mg/kg, Day 7, listed as Compound-5, 50 mg/kg): 37 and 38.1
Body temperature (group Mean) ([2]; i.n. daily 100 mg/kg, Day 1 (baseline)): 37.0
Body temperature (individual mouse) ([2]; i.n. daily 100 mg/kg, Day 3, listed as Compound-5, 100 mg/kg): 37.7 and 37 and 36.9
Body temperature (individual mouse) ([2]; i.n. daily 100 mg/kg, Day 5, listed as Compound-5, 100 mg/kg): 37.7 (2×) and 36.6 and 37.9 and 36.9
Body temperature (individual mouse) ([2]; i.n. daily 100 mg/kg, Day 7, listed as Compound-5, 100 mg/kg): 38.1 and 37.7 and 36.9
Body temperature (individual mouse) ([2]; i.n. daily 200 mg/kg, Day 1 (baseline), listed as Compound-5, 200 mg/kg): 36.9 (2×) and 37.7
Body temperature (individual mouse) ([2]; i.n. daily 200 mg/kg, Day 3, listed as Compound-5, 200 mg/kg): 36.6
Body temperature (individual mouse) ([2]; i.n. daily 200 mg/kg, Day 5, listed as Compound-5, 200 mg/kg): 38
Body temperature (individual mouse) ([2]; i.n. daily 300 mg/kg, Day 5, listed as Compound-5, 300 mg/kg): 38
Body temperature (individual mouse) ([2]; i.n. daily 300 mg/kg, Day 7, listed as Compound-5, 300 mg/kg): 37.9
Body temperature (group Mean) ([2]; i.v. 50 mg/kg (treatment discontinued), Day 3, n 1): 37.7
Body temperature (group Mean) ([2]; i.v. 50 mg/kg (treatment discontinued), Day 5, n 1): 38.0
Body temperature (group Mean) ([2]; i.v. 50 mg/kg (treatment discontinued), Day 7, n 1): 37.0
Body temperature, differences between treatment groups ([2]; i.v. dosing, p>0.05): no significant differences
Body temperature (group Mean) ([2]; i.v. twice-a-week 12.5 mg/kg, Day 1 (baseline)): 36.7
Body temperature (individual mouse) ([2]; i.v. twice-a-week 12.5 mg/kg, Day 1 (baseline), listed as Compound-5): 35.7 and 37
Body temperature (individual mouse) ([2]; i.v. twice-a-week 12.5 mg/kg, Day 3, listed as Compound-5): 38
Body temperature (group Mean) ([2]; i.v. twice-a-week 12.5 mg/kg, Day 5): 37.0
Body temperature (individual mouse) ([2]; i.v. twice-a-week 12.5 mg/kg, Day 5, listed as Compound-5): 37
Body temperature (individual mouse) ([2]; i.v. twice-a-week 12.5 mg/kg, Day 7, listed as Compound-5): 37 and 38.6
Body temperature (group Mean) ([2]; i.v. twice-a-week 25 mg/kg, Day 1 (baseline)): 37.0
Body temperature (individual mouse) ([2]; i.v. twice-a-week 25 mg/kg, Day 1 (baseline), listed as Compound-5): 37.9 and 36.6 and 36.4 and 38.5
Body temperature (individual mouse) ([2]; i.v. twice-a-week 25 mg/kg, Day 3, listed as Compound-5): 36.9
Body temperature (individual mouse) ([2]; i.v. twice-a-week 25 mg/kg, Day 5, listed as Compound-5): 37.9
Body temperature ([2]; intranasal dosing): increased
